Measurements published in ChEMBL document CHEMBL4425097, “Adrenomedullin 2.0: Adjusting Key Levers for Metabolic Stability” (J Med Chem, 2016).
The source made the active and inactive calls. The calls are words filed in the database; no cut-off is given here. Where a SMILES comes first, the peptide text is derived from it. Bridges are numbered along the chain shown (N, C = ends).

target: Adrenomedullin receptor AM1; CALCRL/RAMP2 (Homo sapiens) (UniProt O60895+Q16602); assay: Agonist activity at eYFP-tagged CLR/eCFP-tagged RAMP2-derived AM1 receptor (unknown origin) expressed in HEK293 cells assessed as cAMP accumulation after 3 hrs by ONE-Glo substrate-based luminescence assay; type: functional, cell-based

Row | Activity | Structure (SMILES)
1 | inactive | CC[C@H](C)[C@H](NC(=O)[C@H](CCC(N)=O)NC(=O)[C@H](Cc1cnc[nH]1)NC(=O)[C@H](C)NC(=O)[C@H](CC(C)C)NC(=O)[C@H](CCCCN)NC(=O)[C@H](CCC(N)=O)NC(=O)[C@@H](NC(=O)[C@@H](NC(=O)[C@@H]1CSSC[C@H](NC(=O)CNC(=O)CN)C(=O)N[C@@H](CCCNC(=N)N)C(=O)N[C@@H](Cc2ccccc2)C(=O)NCC(=O)N[C@@H]([C@@H](C)O)C(=O)N1)[C@@H](C)O)C(C)C)C(=O)N[C@@H](Cc1ccc(O)cc1)C(=O)N[C@@H](CCC(N)=O)C(=O)N[C@@H](Cc1ccccc1)C(=O)N[C@H](C(=O)N[C@@H](CC(=O)O)C(=O)N[C@@H](CCCCN)C(=O)N[C@@H](CC(=O)O)C(=O)N[C@@H](CCCCN)C(=O)N[C@@H](CC(=O)O)C(=O)N[C@@H](CC(N)=O)C(=O)N[C@H](C(=O)N[C@@H](C)C(=O)N1CCC[C@H]1C(=O)N[C@@H](CCCNC(=N)N)C(=O)N[C@@H](CO)C(=O)O)C(C)C)[C@@H](C)O (H-GGCRFGTCTVQKLAHQIYQFTDKDKDNVAPRS-OH; disulfide 3-8)
2 | inactive | C[C@@H](O)[C@@H]1NC(=O)CNC(=O)[C@H](Cc2ccccc2)NC(=O)[C@H](CCCNC(=N)N)NC(=O)[C@@H](NC(=O)CNC(=O)CN)CSSC[C@@H](C(=O)O)NC1=O (H-GGCRFGTC-OH; disulfide 3-8)
3 | inactive | CC[C@H](C)[C@H](NC(=O)[C@H](CCC(N)=O)NC(=O)[C@H](Cc1cnc[nH]1)NC(=O)[C@H](C)NC(=O)[C@H](CC(C)C)NC(=O)[C@H](CCCCN)NC(=O)[C@H](CCC(N)=O)NC(=O)[C@@H](NC(=O)[C@@H](N)[C@@H](C)O)C(C)C)C(=O)N[C@@H](Cc1ccc(O)cc1)C(=O)N[C@@H](CCC(N)=O)C(=O)N[C@@H](Cc1ccccc1)C(=O)N[C@H](C(=O)N[C@@H](CC(=O)O)C(=O)N[C@@H](CCCCN)C(=O)N[C@@H](CC(=O)O)C(=O)N[C@@H](CCCCN)C(=O)N[C@@H](CC(=O)O)C(=O)N[C@@H](CC(N)=O)C(=O)N[C@H](C(=O)N[C@@H](C)C(=O)N1CCC[C@H]1C(=O)N[C@@H](CCCNC(=N)N)C(=O)N[C@@H](CO)C(=O)N[C@@H](CCCCN)C(=O)N[C@H](C(=O)N[C@@H](CO)C(=O)N1CCC[C@H]1C(=O)N[C@@H](CCC(N)=O)C(=O)NCC(=O)N[C@@H](Cc1ccc(O)cc1)C(N)=O)[C@@H](C)CC)C(C)C)[C@@H](C)O
4 | inactive | CC[C@H](C)[C@H](NC(=O)[C@H](CCC(N)=O)NC(=O)[C@H](Cc1cnc[nH]1)NC(=O)[C@H](C)NC(=O)[C@H](CC(C)C)NC(=O)[C@H](CCCCN)NC(=O)[C@H](CCC(N)=O)NC(=O)[C@@H](NC(=O)[C@@H](NC(=O)[C@@H]1CSSC[C@H](NC(=O)CNC(=O)CN)C(=O)N[C@@H](CCCNC(=N)N)C(=O)N[C@@H](Cc2ccccc2)C(=O)NCC(=O)N[C@@H]([C@@H](C)O)C(=O)N1)[C@@H](C)O)C(C)C)C(=O)N[C@@H](Cc1ccc(O)cc1)C(=O)N[C@@H](CCC(N)=O)C(=O)N[C@@H](Cc1ccccc1)C(=O)N[C@H](C(=O)N[C@@H](CC(=O)O)C(=O)N[C@@H](CCCCN)C(=O)N[C@@H](CC(=O)O)C(=O)N[C@@H](CCCCN)C(=O)N[C@@H](CC(=O)O)C(=O)N[C@@H](CC(N)=O)C(=O)N[C@H](C(=O)N[C@@H](C)C(=O)N1CCC[C@H]1C(=O)N[C@@H](CCCNC(=N)N)C(=O)O)C(C)C)[C@@H](C)O (H-GGCRFGTCTVQKLAHQIYQFTDKDKDNVAPR-OH; disulfide 3-8)
